Assay results from patent US20220144853A1, “IMIDAZOLINE DERIVATIVES AS CXCR4 MODULATORS” (Université de Paris, priority 2019, published 2022).
Structures can show the parent of a compound that is named as a salt.

Experiments:
[1] = test system: IFN production by activated immune cells (PBMC) from lupus patients; test: IFN production by R848-activated PBMC from lupus patients, STING-37 reporter cell line; type: cell-based, human; settings: 10 μM, PBMC from three SLE patients, FIG. 2
Method: Material from Juvenile Dermatomyositis and Lupus patients were obtained from Necker Hospital, Paris, France or from Imagine Institute, Paris, France. The study was approved by the Conité des Protection des Personnes (ID-RCB/EUDRACT: 2014-A01017-40 and 2018-A01358-47) in France.
In vitro experiments were performed using human peripheral blood mononuclear cells (PBMCs) isolated by density centrifugation from peripheral blood leukocyte separation medium (Cambrex, Gaithersburg, Md.).
PBMCs were cultured in RPMI 1640 (Invitrogen, Gaithersburg, Md.) (R10) containing 10% heat-inactivated fetal bovine serum, 100 U/mL Penicilium and 100 μg/mL Streptomycin (1% Pen-Strep) and 1 mM glutamine (Hyclone, Logan, Utah).
1) The PBMCs used herein were prepared as described in part A “immune cells preparation”, section 1) above. PBMCs were seeded at 2.10^6/mL. […] Cells were then stimulated with the TLR7/8 agonist resiquimod—R848 (Invivogen) at 5 μg/mL. […]
1) To quantify the secretion of functional IFN, a biological assay based on a stable cell line where luciferase reporter gene is controlled by five Interferon-Stimulated Response Elements (STING37 cell line) was used. […] After 24 h of culture, luciferase activity was determined by adding 50 μL of Bright-Glo reagents (Promega) to culture wells and measuring bioluminescence with a luminometer.

[2] = test system: IFN production by activated PBMCs; test: IFN production by R848-activated PBMCs from healthy donors, twINNE reporter cell line; type: cell-based, human; settings: Homo sapiens, PBMC, means of two results over 2 healthy donors, R848 5 μg/mL, IT1t: mean over all experiments, read-out: IC50 of anti-inflammatory activity (IFN production)
Summary of the method: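 Human PBMCs (4.10^6/mL, RPMI/10% FBS, 37° C) stimulated with R848 at 5 μg/mL; supernatants collected after 24 h. Functional IFN measured on twINNE cells (ISRE-driven luciferase reporter) after 24 h culture by bioluminescence; IC50 from variable-slope dose-response fits.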

[3] = test system: IL-18; test: Cytokine production by R848-activated PBMCs, LEGENDplex Human Inflammation panel 1: IL-18; type: cell-based; settings: Homo sapiens, PBMC, PBMCs from 2 healthy donors, R848 overnight
Method: (§1) 2) The PBMCs used herein were prepared as described in part A “immune cells preparation”, section 2) above. PBMCs were seeded at 4.10^6/mL. […] Cells were then stimulated with the TLR7/8 agonist resiquimod—R848 (Sigma-Aldrich, MO, USA) at 5 μg/mL.
(§2) Cytokine expression levels were assessed using LEGENDplex Human inflammation panel 1 Kit (BioLegend, California, USA), which is a bead-based multiplex assay, using fluorescence-encoded beads. […] First, supernatants of R848-stimulated PBMCs were harvested after 24 h of stimulation and frozen at −20° C. for storage. Supernatants were dispensed into a 96-well V-bottom plate. Protocol pursued as per manufacturer recommendations (Manual for BioLegend LEGENDplex, Multi-Analyte Flow Assay Kit, Human Inflammation Panel 1, version 750000393_R01).

[4] = test system: TNF-α; test: Cytokine production by R848-activated PBMCs, LEGENDplex Human Inflammation panel 1: TNF-α; type: cell-based; settings: Homo sapiens, PBMC, PBMCs from 2 healthy donors, R848 overnight
Method: as §1, §2

[5] = test system: IL-10; test: Cytokine production by R848-activated PBMCs, LEGENDplex Human Inflammation panel 1: IL-10; type: cell-based; settings: Homo sapiens, PBMC, PBMCs from 2 healthy donors, R848 overnight
Method: as §1, §2

[6] = target: T1, human CXCR4 (hCXCR4) receptor (Homo sapiens, UniProt P61073); test: BRET assay of antagonist activity on the CXCR4-CXCL12 signaling pathway in transfected HEK-293 T cells; type: cell-based; settings: Gαi1, Gαi2, Gαi3, GαoB or Gαz, EC80 CXCL12, FIG. 6
T1 construct: expressed in transfected cells; host or cells: HEK-293 T cells, transient co-transfection with polyethylenimine
T1 sequence (P61073 whole entry): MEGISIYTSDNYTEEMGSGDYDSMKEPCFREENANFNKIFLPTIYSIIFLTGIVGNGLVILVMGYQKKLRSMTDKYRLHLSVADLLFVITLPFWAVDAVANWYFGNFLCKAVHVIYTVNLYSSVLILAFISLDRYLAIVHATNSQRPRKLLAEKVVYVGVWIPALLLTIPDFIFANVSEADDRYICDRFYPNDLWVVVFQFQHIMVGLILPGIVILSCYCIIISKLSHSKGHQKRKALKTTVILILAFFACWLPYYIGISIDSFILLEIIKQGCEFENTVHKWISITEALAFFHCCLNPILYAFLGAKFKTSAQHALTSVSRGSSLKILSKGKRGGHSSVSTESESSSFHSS
Method: Examples of the present invention were tested for their antagonist activity on human CXCR4 (hCXCR4) receptor transiently over-expressed in HEK-293 T cells. Compounds exert antagonist activity if they decrease the action of CXCL12 on the receptor.
HEK-293 T cells are maintained in Dulbecco's Modified Eagle's Medium supplemented with 10% Foetal Calf Serum, 1% Penicillin/Streptomycin at 37° C./5% CO2. […] After transfection, cells are cultured for 48 h at 37° C./5% CO2.
On the day of the assay, cells are detached using trypsin 0.05%, resuspended in assay buffer (1.8 mM CaCl2, 1 mM MgCl2, 2.7 mM KCl, 137 mM NaCl, 0.4 mM NaH2PO4, 5.5 mM D-Glucose, 11.9 mM NaHCO3, 25 mM Hepes) and seeded in 384 well plate at a density of 20,000 cells per well.
Cells are first incubated for 10 minutes with the compound alone. Then, cells are stimulated by an EC80 CXCL12 concentration for additional 10 minutes and luminescence is recorded. […] Antagonist activity is evaluated in comparison to basal signals evoked by EC80 CXCL12 alone.
For IC50 determination, a dose-response test is performed using 20 concentrations (ranging over 6 logs) of each compound. Dose-response curves are fitted using the sigmoidal dose-response (variable slope) analysis in GraphPad Prism software (GraphPad Software) and IC50 of antagonist activity is calculated. […]

Question: With `CC1(C)CN2C(CSC3=NCC(C)(C)N3)=CSC2=N1` [Example 2, 3-(((5,5-dimethyl-4,5-dihydro-1H-imidazol-2-yl)thio)methyl)-6,6-dimethyl-5,6-dihydroimidazo[2,1-b]thiazole dihydrochloride] as the molecule, how does the “IFN production by activated PBMCs” value [1] read?
Answer: Its value is “level similar to the one of unstimulated negative controls”.

Question: And the IC50 [2]?
Answer: The IC50 was 10 to 31 µM.

Question: And the IC50 [3]?
Answer: Its IC50 is 13 µM.

Question: What about the IC50 [4] of the same molecule?
Answer: Its IC50 is 46 µM.

Question: What about the IC50 [5] of the same molecule?
Answer: The IC50 was 9.1 µM.

Question: And the “antagonist activity: recruitment of G proteins induced by the hCXCR4-CXCL12 interaction” value [6]?
Answer: The value was “significantly lower than IT1t”.
